Values of other authors, collected in US20090175967A1, “METHODS FOR TREATMENT OF INTESTINAL CARCINOGENESIS WITH RICE BRAN” (priority 2008, published 2009).

Tested on: Apc^Min mice

Question: With `COc1cc(/C=C/C(=O)CC(=O)/C=C/c2ccc(O)c(OC)c2)ccc1O` [curcumin] as the compound, how does the adenoma development read?
Answer: Its adenoma development is “compromised adenoma development”.
